Test results from ChEMBL document CHEMBL3044586, “Design, synthesis, and anticonvulsant screening of some substituted piperazine and aniline derivatives of 5-phenyl-oxazolidin-2,4-diones and 5,5-diphenylimidazolidin-2,4 diones” (Med Chem Res, 2012).
Calls of active or inactive are those of the source. No cut-off for these calls is given here.

What was measured:
[1] = system: Rattus norvegicus; test: Presynaptic antagonist activity at 5HT1A receptor in Rattus norvegicus Wistar (rat) assessed as change in rectal temperature at 0.1 mg/kg, sc measured after 120 min (reference value: 0.0 +/- 0.1 degC); format: functional, organism-based; set-up: dose 0.1 mg/kg
[2] = system: Rattus norvegicus; test: Postsynaptic antagonist activity at 5HT1A receptor in Rattus norvegicus Wistar (rat) assessed as inhibition of 8-OH-DPAT-induced lower lip retraction at 0.1 mg/kg, sc administered 45 min prior to 8-OH-DPAT-challenge measured after 15 min; format: functional, organism-based; set-up: dose 0.1 mg/kg
[3] = system: Rattus norvegicus; test: Presynaptic antagonist activity at 5HT1A receptor in Rattus norvegicus Wistar (rat) assessed as change in rectal temperature at 0.1 mg/kg, sc measured after 90 min (reference value: -0.2 +/- 0.1 degC); format: functional, organism-based; set-up: dose 0.1 mg/kg
[4] = system: Rattus norvegicus; test: Presynaptic antagonist activity at 5HT1A receptor in Rattus norvegicus Wistar (rat) assessed as change in rectal temperature at 0.1 mg/kg, sc measured after 60 min (reference value: 0.0 +/- 0.1 degC); format: functional, organism-based; set-up: dose 0.1 mg/kg
[5] = system: Rattus norvegicus; test: Antagonist activity at 5HT1A receptor in Rattus norvegicus Wistar (rat) assessed as change in rectal temperature at 0.1 mg/kg, sc measured after 30 min (reference value: -0.1 +/- 0.1 degC); format: functional, organism-based; set-up: dose 0.1 mg/kg
[6] = system: Mus musculus; test: Anticonvulsant activity in Mus musculus Swiss albino (mouse) assessed as reduction in maximal electroshock-induced seizure at 300 mg/kg, ip measured after 4 hr; format: functional, organism-based; set-up: dose 300 mg/kg
[7] = system: Mus musculus; test: Anticonvulsant activity in Mus musculus Swiss albino (mouse) assessed as reduction in maximal electroshock-induced seizure at 30 to 300 mg/kg, ip measured after 0.5 hr; format: functional, organism-based
[8] = system: Mus musculus; test: Neurotoxicity against Mus musculus Swiss albino (mouse) assessed as inability to maintain equilibrium on rod at 100 mg/kg, ip measured after 0.5 hr by rotarod test; format: toxicity, organism-based; set-up: dose 100 mg/kg, route intraperitoneal; conditions: in vivo
[9] = system: Mus musculus; test: Neurotoxicity against Mus musculus Swiss albino (mouse) assessed as inability to maintain equilibrium on rod at 300 mg/kg, ip measured after 4 hr by rotarod test; format: toxicity, organism-based; set-up: dose 300 mg/kg, route intraperitoneal; conditions: in vivo
[10] = system: Rattus norvegicus; test: Neurotoxicity against Rattus norvegicus Wistar (rat) assessed as inability to maintain equilibrium on rod at 30 mg/kg, po measured after 4 hr by rotarod test; format: toxicity, organism-based; set-up: dose 30 mg/kg, route oral; conditions: in vivo
[11] = system: Mus musculus; test: Anticonvulsant activity in Mus musculus Swiss albino (mouse) assessed as reduction in maximal electroshock-induced seizure at 30 mg/kg, ip measured after 4 hr; format: functional, organism-based; set-up: dose 30 mg/kg
[12] = system: Mus musculus; test: Neurotoxicity against Mus musculus Swiss albino (mouse) assessed as inability to maintain equilibrium on rod at 100 mg/kg, ip measured after 4 hr by rotarod test; format: toxicity, organism-based; set-up: dose 100 mg/kg, route intraperitoneal; conditions: in vivo
[13] = system: Rattus norvegicus; test: Anticonvulsant activity in Rattus norvegicus Wistar (rat) assessed as reduction in maximal electroshock-induced seizures at 30 mg/kg, po measured after 4 hr; format: functional, organism-based; set-up: dose 30 mg/kg
[14] = system: Rattus norvegicus; test: Anticonvulsant activity in Rattus norvegicus Wistar (rat) assessed as reduction in maximal electroshock-induced seizures at 30 mg/kg, po measured after 0.5 hr; format: functional, organism-based; set-up: dose 30 mg/kg
[15] = system: Mus musculus; test: Anticonvulsant activity in Mus musculus Swiss albino (mouse) assessed as reduction in maximal electroshock-induced seizure at 30 mg/kg, ip measured after 0.5 hr; format: functional, organism-based; set-up: dose 30 mg/kg
[16] = system: Rattus norvegicus; test: Neurotoxicity against Rattus norvegicus Wistar (rat) assessed as inability to maintain equilibrium on rod at 30 mg/kg, po measured after 0.5 hr by rotarod test; format: toxicity, organism-based; set-up: dose 30 mg/kg, route oral; conditions: in vivo
[17] = system: Rattus norvegicus; test: Presynaptic agonist activity at 5HT1A receptor in Rattus norvegicus Wistar (rat) assessed as change in rectal temperature at 20 mg/kg, ip measured after 120 min (reference value: 0.0 +/- 0.1 degC); format: functional, organism-based; set-up: dose 20 mg/kg
[18] = system: Rattus norvegicus; test: Presynaptic agonist activity at 5HT1A receptor in Rattus norvegicus Wistar (rat) assessed as change in rectal temperature at 10 mg/kg, ip measured after 60 min (reference value: 0.0 +/- 0.1 degC); format: functional, organism-based; set-up: dose 10 mg/kg
[19] = system: Rattus norvegicus; test: Presynaptic agonist activity at 5HT1A receptor in Rattus norvegicus Wistar (rat) assessed as change in rectal temperature at 10 mg/kg, ip measured after 120 min (reference value: 0.0 +/- 0.1 degC); format: functional, organism-based; set-up: dose 10 mg/kg
[20] = system: Mus musculus; test: Anticonvulsant activity in Mus musculus Swiss albino (mouse) assessed as reduction in maximal electroshock-induced seizure at 100 mg/kg, ip measured after 0.5 hr; format: functional, organism-based; set-up: dose 100 mg/kg
[21] = system: Rattus norvegicus; test: Presynaptic agonist activity at 5HT1A receptor in Rattus norvegicus Wistar (rat) assessed as change in rectal temperature at 10 mg/kg, ip measured after 30 min (reference value: -0.1 +/- 0.1 degC); format: functional, organism-based; set-up: dose 10 mg/kg
[22] = system: Mus musculus; test: Binding affinity to 5HT2A receptor in ip dosed Mus musculus Swiss albino (mouse) assessed as effect on +/-DOI-induced head twitching administered 60 min prior to +/-DOI-challenge measured for 20 min; format: functional, organism-based
[23] = system: Mus musculus; test: Neurotoxicity against Mus musculus Swiss albino (mouse) assessed as inability to maintain equilibrium on rod at 30 to 300 mg/kg, ip measured after 4 hr by rotarod test; format: toxicity, organism-based; set-up: dose 30-300 mg/kg, route intraperitoneal; conditions: in vivo
[24] = system: Mus musculus; test: Anticonvulsant activity in Mus musculus Swiss albino (mouse) assessed as reduction in maximal electroshock-induced seizure at 100 mg/kg, ip measured after 4 hr; format: functional, organism-based; set-up: dose 100 mg/kg
[25] = system: Rattus norvegicus; test: Presynaptic agonist activity at 5HT1A receptor in Rattus norvegicus Wistar (rat) assessed as change in rectal temperature at 20 mg/kg, ip measured after 30 min (reference value: -0.1 +/- 0.1 degC); format: functional, organism-based; set-up: dose 20 mg/kg
[26] = system: Rattus norvegicus; test: Presynaptic agonist activity at 5HT1A receptor in Rattus norvegicus Wistar (rat) assessed as change in rectal temperature at 20 mg/kg, ip measured after 60 min (reference value: 0.0 +/- 0.1 degC); format: functional, organism-based; set-up: dose 20 mg/kg
[27] = system: Rattus norvegicus; test: Presynaptic agonist activity at 5HT1A receptor in Rattus norvegicus Wistar (rat) assessed as change in rectal temperature at 20 mg/kg, ip measured after 90 min (reference value: -0.2 +/- 0.1 degC); format: functional, organism-based; set-up: dose 20 mg/kg
[28] = system: Rattus norvegicus; test: Postsynaptic agonist activity at 5HT1A receptor in Rattus norvegicus Wistar (rat) assessed as increase in lower lip retraction at 10 to 20 mg/kg, ip measured after 15 min; format: functional, organism-based
[29] = system: Rattus norvegicus; test: Presynaptic agonist activity at 5HT1A receptor in Rattus norvegicus Wistar (rat) assessed as change in rectal temperature at 10 mg/kg, ip measured after 90 min (reference value: -0.2 +/- 0.1 degC); format: functional, organism-based; set-up: dose 10 mg/kg
[30] = system: Mus musculus; test: Neurotoxicity against Mus musculus Swiss albino (mouse) assessed as inability to maintain equilibrium on rod at 30 to 300 mg/kg, ip measured after 0.5 hr by rotarod test; format: toxicity, organism-based; set-up: dose 30-300 mg/kg, route intraperitoneal; conditions: in vivo
[31] = system: Mus musculus; test: Anticonvulsant activity in Mus musculus Swiss albino (mouse) assessed as reduction in maximal electroshock-induced seizure at 300 mg/kg, ip measured after 0.5 hr; format: functional, organism-based; set-up: dose 300 mg/kg
[32] = system: Mus musculus; test: Antagonist activity at 5HT2A receptor in ip dosed Mus musculus Swiss albino (mouse) assessed as inhibition of +/-DOI-induced head twitching administered 60 min prior to +/-DOI-challenge measured for 20 min; format: functional; conditions: read-out: ID50 (the source's name)
[33] = system: Rattus norvegicus; test: Postsynaptic antagonist activity at 5HT1A receptor in Rattus norvegicus Wistar (rat) assessed as inhibition of 8-OH-DPAT-induced lower lip retraction at 10 to 20 mg/kg, ip administered 45 min prior to 8-OH-DPAT-challenge measured after 15 min; format: functional, organism-based

| SMILES | Activity [8] | Activity [10] | Activity [11] | Activity [13] | Activity [14] | Activity [16] | deltaT [17] | deltaT [18] | deltaT [19] | Activity [20] | deltaT [21] | Activity [23] | deltaT [25] | deltaT [26] | deltaT [27] | deltaT [29] | Activity [30] | ED50 [32] | inhibition [33] | other results |
| --- | --- | --- | --- | --- | --- | --- | --- | --- | --- | --- | --- | --- | --- | --- | --- | --- | --- | --- | --- | --- |
| COc1ccccc1N1CCN(CCN(C(=O)C2CCCCC2)c2ccccn2)CC1 | – | – | – | – | – | – | – | – | – | – | – | – | – | – | – | – | – | – | – | deltaT [1]: 0.2 °C; inhibition [2]: Active; deltaT [3]: 0.1 °C; deltaT [4]: 0.2 °C; deltaT [5]: 0.2 °C |
| Cc1ccc(N2CCN(CCN3C(=O)NC(c4ccccc4)(c4ccccc4)C3=O)CC2)cc1 | Toxic | – | – | – | – | – | – | – | – | – | – | – | – | – | – | – | – | – | – | Activity [6]: Active; Activity [7]: inactive; Activity [9]: Toxic |
| O=C1NC(=O)C(c2ccccc2)(c2ccccc2)N1 [PHENYTOIN] | Toxic | Non-toxic | Active | Active | Active | Non-toxic | – | – | – | – | – | – | – | – | – | – | – | – | – | Activity [12]: Toxic; Activity [15]: Active |
| COc1ccc(NCCN2C(=O)NC(c3ccccc3)(c3ccccc3)C2=O)cc1 | – | Non-toxic | – | inactive | inactive | Non-toxic | -1.3 °C | -0.6 °C | -0.6 °C | Active | -0.5 °C | Non-toxic | -1.2 °C | -1.5 °C | -1.8 °C | -0.8 °C | Non-toxic | – | – | Activity [22]: inactive; Activity [24]: Active; Activity [28]: Active; Activity [31]: Active |
| O=C1OC(c2ccccc2)C(=O)N1CCNc1ccc(O)cc1 (configuration not stated) | – | Non-toxic | Active | Active | Active | Non-toxic | -1.1 °C | -0.6 °C | -0.6 °C | Active | -0.4 °C | Non-toxic | -1 °C | -1.2 °C | -1.6 °C | -0.7 °C | Non-toxic | 11 mg/kg | Active | – |
| O=C1OC(c2ccccc2)C(=O)N1CCNc1ccc(Cl)cc1 (configuration not stated) | – | Non-toxic | Active | Active | Active | Non-toxic | -1.3 °C | -0.5 °C | -0.5 °C | Active | -0.2 °C | Non-toxic | -1.2 °C | -1.3 °C | -1.5 °C | -0.7 °C | Non-toxic | 8 mg/kg | Active | – |
